Key:
[1] = Solubility of the drug in pH 5.0 phosphate buffer receiver fluid; assay type: physicochemical
D2 = conditions: cited from earlier work
[2] = assay type: in vivo
Experimental: The effective dose for treating Parkinson's disease is estimated to be in the range of about 1 to 3 μg/kg/hr. Accordingly, for transdermal administration, the target flux of this drug (based on a 20 cm^2 delivery area) is estimated to be in the range of approximately 3-10 μg/cm^2 /hr.

[3] = pH 6

Structure (SMILES)	solubility for the drug [1]	selective D2 agonist (D2)	target flux [2]	effective dose for treating Parkinson's disease ([2]; estimated)	skin flux from liquid formulations [3]
Cc1cccc(CN2CCN(C)C[C@@H](NC(=O)c3n[nH]c4ccccc34)C2)c1.Cl.Cl [(R)-(-)-N-(1-Methyl-4-(3-methylbenzyl)hexahydro-1H-1,4-diazepin-6-yl)-1H-indazole-3-carboxamide dihydrochloride]	reasonable solubility				
CCCN(CCc1cccs1)[C@H]1CCc2c(O)cccc2C1 [S(-)-2-(N-propyl-N-2-thienylethylamine)-5-hydroxytetralin]		selective D2 agonist	3-10 μg/cm^2 /hr	1 to 3 µg/kg/h	at or above the effective range

— patent publication US5840336A, “Two-phase matrix for sustained release drug delivery device” (Cygnus, Inc., priority 1995, dated 1998)
